Source: PMC4674819, “Identification of Novel Inhibitors of Organic Anion Transporting Polypeptides 1B1 and 1B3 (OATP1B1 and OATP1B3) Using a Consensus Vote of Six Classification Models” (Molecular Pharmaceutics, 2015)
Where “and” joins values, the source holds several entries; their conditions need not be identical. Equal entries are not always repeated. Structures can show the parent of a compound that is named as a salt. Where two headings read alike, the source gives them in different places.

Experiments:
OATP1B1 [1] = target: T1, OATP1B1 (Homo sapiens, UniProt Q9Y6L6); experiment: Inhibition of FMTX uptake in CHO cells stably transfected with OATP1B1; format: cell-based; conditions: for IC50: CHO cells stably transfected with OATP1B1, 5 μM FMTX, 10 min, 37 °C, means ± SD of three independent experiments; for Correctness of prediction, first symbol (OATP1B1): inhibitor class from measured IC50 against the consensus prediction
T1 construct: host or cells: CHO (Chinese hamster ovary) cells, stably transfected
T1 sequence (Q9Y6L6 1-691): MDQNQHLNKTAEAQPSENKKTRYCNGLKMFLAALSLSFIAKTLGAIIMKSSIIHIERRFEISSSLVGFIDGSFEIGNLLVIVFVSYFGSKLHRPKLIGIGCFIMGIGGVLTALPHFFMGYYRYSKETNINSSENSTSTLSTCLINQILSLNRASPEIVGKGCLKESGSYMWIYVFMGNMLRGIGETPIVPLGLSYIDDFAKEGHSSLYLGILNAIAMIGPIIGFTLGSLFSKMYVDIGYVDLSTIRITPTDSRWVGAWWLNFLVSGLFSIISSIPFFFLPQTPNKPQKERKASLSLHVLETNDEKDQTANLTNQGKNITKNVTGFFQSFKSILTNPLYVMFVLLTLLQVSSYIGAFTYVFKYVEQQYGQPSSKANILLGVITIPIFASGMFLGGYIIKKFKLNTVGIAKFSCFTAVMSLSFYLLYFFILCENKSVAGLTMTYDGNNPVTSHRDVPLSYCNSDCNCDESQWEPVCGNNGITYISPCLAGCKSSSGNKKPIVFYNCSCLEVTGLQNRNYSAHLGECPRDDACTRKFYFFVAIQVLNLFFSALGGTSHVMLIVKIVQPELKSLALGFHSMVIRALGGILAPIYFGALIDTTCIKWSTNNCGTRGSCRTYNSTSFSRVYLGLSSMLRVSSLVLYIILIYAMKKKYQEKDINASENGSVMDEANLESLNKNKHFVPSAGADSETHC
Experimental: (§1) Chinese hamster ovary (CHO) cells that were stably transfected with OATP1B1 or OATP1B3 and wild-type CHO cells were provided by the University of Zurich, Switzerland, and have been extensively characterized previously.[24],[56],[57] Cells were grown in Dulbecco’s modified Eagle medium (DMEM) supplemented with 10% FCS, 50 μg/mL L-proline, 100 U/mL penicillin, and 100 μg/mL streptomycin. The culture media of the transfected CHO cells additionally contained 500 μg/mL Geneticin sulfate (G418) (Sigma-Aldrich, Munich, Germany). Media and supplements were obtained from Invitrogen (Karlsruhe, Germany). Cells were incubated at 5% CO2 and 37 °C. For uptake experiments, CHO cells were seeded in 24-well plates (BD Biosciences, Heidelberg, Germany) at a density of 25,000 cells/well. Uptake assays were generally performed on day 3 after seeding, when the cells had grown to confluence. 24 h before starting the transport experiments, cells were additionally treated with 5 mM sodium butyrate (Sigma-Aldrich, Munich, Germany) to induce gene expression. Prior to the uptake experiments, cells were rinsed twice with 2 mL of prewarmed (37 °C) uptake buffer (116.4 mM NaCl, 5.3 mM KCL, 1 mM NaH2PO4, 0.8 mM MgSO4, 5.5 mM D-glucose, and 20 mM Hepes, pH adjusted to 7.4). Uptake was initiated by adding 0.5 mL of uptake buffer containing 5 μM of the fluorescent OATP1B1/1B3 substrate FMTX[58] in the presence or absence of inhibitors. After 10 min culture at 37 °C, uptake was stopped by removing the uptake solution and washing the cells 3 times with ice-cold uptake buffer. The cells were then lysed with 0.5 mL of 0.5% Triton X-100 solution dissolved in PBS and placed on a plate shaker for 30 min. Fluorescence was measured in an Enspire Multimode plate reader (PerkinElmer, Waltham, MA) at an excitation wavelength of 485 and an emission wavelength of 528 nm.
(§2) IC50 values were determined by plotting the log inhibitor concentration against the net uptake rate and nonlinear regression of the data set using the equation [drawing 1] in which y is the net uptake rate (pmol/μg of protein/min), I is the inhibitor concentration (μM), s is the slope at the point of inversion, and a and b are the maximum and minimum values for cellular uptake (GraphPad Software, San Diego, CA, USA) . Net uptake was calculated for each inhibitor concentration as the difference in the uptake rates of the transporter-expressing and wild-type cell lines. Unless otherwise indicated, values are expressed as mean ± SD of three individual experiments. Significant differences from control values were determined using a Student’s paired t test at a significance level of p < 0.05.

OATP1B3 [2] = target: T2, OATP1B3 (Homo sapiens, UniProt Q9NPD5); experiment: Inhibition of FMTX uptake in CHO cells stably transfected with OATP1B3; format: cell-based; conditions: for Correctness of prediction, second symbol (OATP1B3): inhibitor class from measured IC50 against the consensus prediction
T2 construct: host or cells: CHO (Chinese hamster ovary) cells, stably transfected
T2 sequence (Q9NPD5 1-702): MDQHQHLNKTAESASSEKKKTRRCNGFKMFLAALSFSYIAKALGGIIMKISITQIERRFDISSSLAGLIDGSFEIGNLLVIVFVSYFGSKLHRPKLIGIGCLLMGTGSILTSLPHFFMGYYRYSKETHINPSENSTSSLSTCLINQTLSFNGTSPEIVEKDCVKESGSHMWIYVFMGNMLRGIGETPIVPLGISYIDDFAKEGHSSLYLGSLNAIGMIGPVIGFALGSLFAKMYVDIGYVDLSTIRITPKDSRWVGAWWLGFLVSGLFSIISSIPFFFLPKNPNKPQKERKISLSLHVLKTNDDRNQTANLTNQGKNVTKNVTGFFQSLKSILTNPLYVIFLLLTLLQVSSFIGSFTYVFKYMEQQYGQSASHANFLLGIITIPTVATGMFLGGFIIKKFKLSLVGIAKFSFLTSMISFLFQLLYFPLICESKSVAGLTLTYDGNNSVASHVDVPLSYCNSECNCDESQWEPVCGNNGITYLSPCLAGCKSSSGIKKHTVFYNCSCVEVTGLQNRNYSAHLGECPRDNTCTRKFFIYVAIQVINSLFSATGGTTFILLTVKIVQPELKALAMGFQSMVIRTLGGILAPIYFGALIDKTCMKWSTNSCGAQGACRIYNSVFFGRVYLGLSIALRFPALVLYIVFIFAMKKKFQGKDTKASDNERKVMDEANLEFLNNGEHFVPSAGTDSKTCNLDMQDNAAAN
Experimental: as §1, §2

[3] = cited from earlier work
OATP1B3 [4] = conditions: commercial library of 640 FDA-approved drugs; cited from earlier work
OATP1B1 [5] = test system: OATP1B1; parameters: method as in PMID 25603031; conditions: commercial library of 640 FDA-approved drugs; cited from earlier work
OATP1B1 [6] = test system: OATP1B1; parameters: method as in PMID 22541068; conditions: cited from earlier work
OATP1B1 [7] = test system: OATP1B1; parameters: method as in PMID 23571415; conditions: cited from earlier work
[8] = CHO cells stably transfected with OATP1B3, 5 μM FMTX, 10 min, 37 °C, means ± SD of three independent experiments, read-out: IC50 (μM) OATP1B3
[9] = remark printed after the IC50 value, read-out: OATP1B3 inhibition, remark in the IC50 cell

SMILES	IC50 (OATP1B1 [1])	IC50 (OATP1B3 [2]; [8])	OATP1B1 inhibition, result in words (OATP1B1 [1]; false negative of the OATP1B1 consensus model)	IC50 (OATP1B3 [2]; [9])	Correctness of prediction, first symbol (OATP1B1) (OATP1B1 [1])	Correctness of prediction, second symbol (OATP1B3) (OATP1B3 [2])	hepatotoxicity, literature reports [3]	hyperbilirubinemia, reports in online sources and literature [3]	rank among OATP1B3 inhibitors in the screen of van de Steeg et al. (OATP1B3 [4])	rank among OATP1B1 inhibitors in the screen of van de Steeg et al. (OATP1B1 [5])	effect on liver injury, literature report ([3]; diabetic patients)	hepatic serum enzymes, literature report [3]	OATP1B1 inhibition class as evaluated by Karlgren et al. (OATP1B1 [6])	OATP1B1 inhibition class as annotated by De Bruyn et al. (OATP1B1 [7])
CC(C)C[C@H](NC(=O)[C@H](CCc1ccccc1)NC(=O)CN1CCOCC1)C(=O)N[C@@H](Cc1ccccc1)C(=O)N[C@@H](CC(C)C)C(=O)[C@@]1(C)CO1 [Carfilzomib]	0.38 ± 0.12 µM	0.9 ± 0.17 µM	–	–	+++,+++ (strong inhibitor (IC50 values less than 1 μM))	+++,+++ (strong inhibitor (IC50 values less than 1 μM))	–	–	–	–	–	–	–	–
Cc1cc2nc3c(=O)[nH]c(=O)nc-3n(C[C@H](O)[C@H](O)[C@H](O)COP(=O)(O)OP(=O)(O)OC[C@H]3O[C@@H](n4cnc5c(N)ncnc54)[C@H](O)[C@@H]3O)c2cc1C [Flavin adenine dinucleotide]	6.62 ± 1.15 µM	10 ± 0.78 µM	OATP1B1 inhibitor	–	x (wrong class prediction)	+ (moderate inhibitors (IC50 values between 5 and 10 μM))	–	–	–	–	–	–	–	–
CCC(=O)O[C@@H](O[P@](=O)(CCCCc1ccccc1)CC(=O)N1C[C@H](C2CCCCC2)C[C@H]1C(=O)O)C(C)C [Fosinopril sodium]	6.28 ± 1.13 µM	5.19 ± 0.98 µM	–	–	+,+ (moderate inhibitors (IC50 values between 5 and 10 μM))	+,+ (moderate inhibitors (IC50 values between 5 and 10 μM))	some literature reports for hepatotoxicity	causing hyperbilirubinemia	20 strongest OATP1B1 and OATP1B3 inhibitors	20 strongest OATP1B1 and OATP1B3 inhibitors	–	–	–	–
CN(C)c1cccc2c(S(=O)(=O)N[C@@H](Cc3ccc(OS(=O)(=O)c4cccc5c(N(C)C)cccc45)cc3)C(=O)O)cccc12 [N,O-Didansyl-L-Tyrosine]	6.07 ± 0.56 µM	2.94 ± 0.75 µM	–	–	+ (moderate inhibitors (IC50 values between 5 and 10 μM))	++ (moderately strong inhibitor (IC50 values between 1 and 5 μM))	–	–	–	–	–	–	–	–
CO[C@H]1C[C@@H]2CC[C@@H](C)[C@@](O)(O2)C(=O)C(=O)N2CCCC[C@H]2C(=O)O[C@H]([C@H](C)C[C@@H]2CC[C@@H](O)[C@H](OC)C2)CC(=O)[C@H](C)/C=C(\C)[C@@H](O)[C@@H](OC)C(=O)[C@H](C)C[C@H](C)/C=C/C=C/C=C/1C [Rapamycin (Sirolimus)]	0.62 ± 0.19 µM	–	–	–	+++,+++ (strong inhibitor (IC50 values less than 1 μM))	+++,+++ (strong inhibitor (IC50 values less than 1 μM))	some literature reports for hepatotoxicity	causing hyperbilirubinemia	20 strongest OATP1B1 and OATP1B3 inhibitors	20 strongest OATP1B1 and OATP1B3 inhibitors	–	–	–	–
CC(=O)Nc1cccc(-n2c(=O)n(C3CC3)c(=O)c3c(Nc4ccc(I)cc4F)n(C)c(=O)c(C)c32)c1 [Trametinib]	0.34 ± 0.09 µM	> 10 µM and 30.8 µM	–	> 10 µM	+++ (strong inhibitor (IC50 values less than 1 μM))	-+ (slight inhibitors (IC50 values above 10 μM))	–	–	–	–	–	elevating hepatic serum enzymes	–	–
O=C(O)c1cc(/N=N/c2ccc(S(=O)(=O)Nc3ccccn3)cc2)ccc1O [sulfasalazine]	–	–	–	–	–	–	–	–	–	–	–	–	inhibitor	noninhibitor

Further lines, with some results ahead:

IC50 (OATP1B1 [1])	IC50 (OATP1B3 [2]; [8])	OATP1B1 inhibition, result in words (OATP1B1 [1]; false negative of the OATP1B1 consensus model)	IC50 (OATP1B3 [2]; [9])	SMILES	Correctness of prediction, first symbol (OATP1B1) (OATP1B1 [1])	Correctness of prediction, second symbol (OATP1B3) (OATP1B3 [2])	hepatotoxicity, literature reports [3]	hyperbilirubinemia, reports in online sources and literature [3]	rank among OATP1B3 inhibitors in the screen of van de Steeg et al. (OATP1B3 [4])	rank among OATP1B1 inhibitors in the screen of van de Steeg et al. (OATP1B1 [5])	effect on liver injury, literature report ([3]; diabetic patients)	hepatic serum enzymes, literature report [3]	OATP1B1 inhibition class as evaluated by Karlgren et al. (OATP1B1 [6])	OATP1B1 inhibition class as annotated by De Bruyn et al. (OATP1B1 [7])
0.32 ± 0.07 µM	1.12 ± 0.2 µM	–	–	CCCCc1oc2ccc(NS(C)(=O)=O)cc2c1C(=O)c1ccc(OCCCN(CCCC)CCCC)cc1 [Dronedarone hydrochlorid e]	+++ (strong inhibitor (IC50 values less than 1 μM))	++ (moderately strong inhibitor (IC50 values between 1 and 5 μM))	some literature reports for hepatotoxicity	causing hyperbilirubinemia	–	–	–	–	–	–
7.45 ± 1.64 µM	1.17 ± 0.31 µM	–	–	COc1ccc2c(c1)C(=O)N(CCc1ccc(S(=O)(=O)NC(=O)NC3CCCCC3)cc1)C(=O)C2(C)C [Gliquidone]	+ (moderate inhibitors (IC50 values between 5 and 10 μM))	++ (moderately strong inhibitor (IC50 values between 1 and 5 μM))	–	–	–	–	improve liver injury	–	–	–
0.37 ± 0.19 µM	> 10 µM and 33.8 µM	–	> 10 µM	CS(=O)(=O)CCNCc1ccc(-c2ccc3ncnc(Nc4ccc(OCc5cccc(F)c5)c(Cl)c4)c3c2)o1 [Lapatinib]	+++ (strong inhibitor (IC50 values less than 1 μM))	-+ (slight inhibitors (IC50 values above 10 μM))	some literature reports for hepatotoxicity	causing hyperbilirubinemia	–	–	–	–	–	–
7.84 ± 0.49 µM	4.96 ± 0.92 µM	–	–	COc1cc(C(=O)NS(=O)(=O)c2ccccc2C)ccc1Cc1cn(C)c2ccc(NC(=O)OC3CCCC3)cc12 [Zafirlukast]	+ (moderate inhibitors (IC50 values between 5 and 10 μM))	++ (moderately strong inhibitor (IC50 values between 1 and 5 μM))	some literature reports for hepatotoxicity	causing hyperbilirubinemia	–	–	–	–	–	–
